From patent publication US4766222A, “Novel class of acyl-derivatives of carnitine process for preparing same and therapeutic use thereof” (Sigma-Tau Industrie Farmacuetiche Riunite S.p.A., priority 1980, dated 1988)
Like-named read-outs stand apart in the source and are kept apart here.

Assays:
in vivo = assay type: in vivo; conditions: mouse, in vivo, ip; i.p. in mice; N = 5, K = 4; read-out: LD50 and fiducial limits
Source text: (§1) The acute toxicity of the compounds of general formula (I) was investigated in mice using the Weil method (Weil C. S., Biometr. J. 8, 249, 1952).

[1] = tested on: arrythmia induced by Aconitine in mice; assay: animal or person; assay type: in vivo; conditions: for change in vivo at 25 mg/kg / change in vivo at 50 mg/kg / change in vivo at 35 mg/kg / change in vivo at 20 mg/kg / change in vivo at 40 mg/kg / change in vivo at 8.9 mg/kg / change in vivo at 100 mg/kg: Mus musculus, iv; for % increase of the latency time to onset of initial cardiac arrythmia / % increase of the latency time to onset of tachycardia: with respect to the control group
Method: The antiarrhythmic effect of the compounds was also investigated in mice according to the P. W. Nwangwu, T. Holcslow procedure (P. W. Nwangwu, T. L. Holcslow; Arch. Int. Pharmacodyn. 229, 219 (1977)). Using aconitine (5γ/ml) as arrhythmogenic agent, the changes in the cardiac rhythm of the animals were recorded and the onset time of initial arrhythmia and/or of ventricular tachycardia were used as end point.

[2] = tested on: plasma cholesterol (Chol.) triglycerides (TG) and α-, β- and pre-β-lipoproteins; assay: plasma cholesterol, triglycerides and lipoproteins in rats treated with olive oil; assay type: in vivo; conditions: olive oil 15 ml kg^-1, N = 6; for % Lipoproteins β: control 16.12 ± 1.48; for % Lipoproteins α: control 23.28 ± 2.19; for % Lipoproteins pre-β: control 56.45 ± 2.36; for Chol. (plasma cholesterol): control 96.18 ± 4.16; for TG (plasma triglycerides): control 215.36 ± 20.18
mice = assay: in vivo; assay type: in vivo; conditions: i.p. in mice; N = 5, K = 4
Source text: as §1

[3] = tested on: rabbit's heart "in vitro"; assay: cardiokinetic effect: contractile force of isolated rabbit heart (Langendorff) after anoxia; conditions: 10^-6 M; 10 minutes from the interruption of the anoxic period; control 26.93 ± 5.31
Method: The cardiokinetic effect was investigated on rabbit hearts isolated by the Langendorff method. […] The isometric contractions, electro-cardiogram and coronary flow were recorded using a "Battaglia-Rangoni" polygraph. By removing the oxygen from the perfusion fluid, metabolic damage was induced in the cardiac muscle, up to an 80% reduction in the cardiac contractile force. Under these conditions of prolonged anoxia the aerobic glycolysis of the myocardium is slowed down with attendant formation of acid catabolites due to both the accumulation of pyruvic acid and its conversion to lactic acid which cannot be utilized because of the depression of pyridine enzymes, such as LDH (lactodehydrogenase). This has repercussions on the anaerobic glycolysis affecting an ever increasing number of enzymes, accompanied by a progressive and increasingly critical exhaustion of the myocardium. Thus a whole series of cardiac muscle fatigue levels occurs which can be observed by the behaviour of the examined parameters, namely the contractile force, coronary flow, heart rate and cardiac rhythm. As soon as the contractile force was reduced by 80%, the perfusion fluid was once again oxygenated either without adding other compounds (controls) or with the addition of the compounds under examination.

[4] = read-out: % increase of the latency time to onset of initial cardiac arrythmia
[5] = read-out: % increase of the latency time to onset of tachycardia

CC(C)(O)C(=O)OC(CC(=O)O)C[N+](C)(C)C (centres unmarked) [2-hydroxy isobutyryl CAR]
LD50 (in vivo): 1470 mg/kg | change in vivo at 25 mg/kg [1, 4]: 55% | change in vivo at 25 mg/kg [1, 5]: 48% | % Lipoproteins β ([2]; 450 mg kg^-1 oral): 10.36 ± 1.12% | % Lipoproteins α ([2]; 450 mg kg^-1 oral): 27.19 ± 3.48% | % Lipoproteins pre-β ([2]; 450 mg kg^-1 oral): 48.36 ± 1.15% | Chol. (plasma cholesterol) ([2]; 450 mg kg^-1 oral): 75.03 ± 4.12 mg/100 ml | TG (plasma triglycerides) ([2]; 450 mg kg^-1 oral): 100.29 ± 12.48 mg/100 ml

vinyl acetyl carnitine chloride [vinyl CAR]
LD50 and fiducial limits (mice): 1200 (800-1600) mg kg^-1 | contractile force, mean ± ESM [3]: 48.25 ± 5.12% | % increase of the latency time to onset of initial cardiac arrythmia ([1]; 38 mg kg^-1 i.v.): 53% | % increase of the latency time to onset of tachycardia ([1]; 38 mg kg^-1 i.v.): 41% | % Lipoproteins β ([2]; 300 mg kg^-1 oral): 14.13 ± 1.63% | % Lipoproteins α ([2]; 300 mg kg^-1 oral): 29.46 ± 3.15% | % Lipoproteins pre-β ([2]; 300 mg kg^-1 oral): 48.89 ± 2.96% | Chol. (plasma cholesterol) ([2]; 300 mg kg^-1 oral): 78.15 ± 6.16 mg/100 ml | TG (plasma triglycerides) ([2]; 300 mg kg^-1 oral): 112.15 ± 15.16 mg/100 ml

C=CC(=O)OC(CC(=O)O)C[N+](C)(C)C (centres unmarked) [acrilyl-CAR]
LD50 (in vivo): 1380 mg/kg | change in vivo at 50 mg/kg [1, 4]: 45% | change in vivo at 50 mg/kg [1, 5]: 39%

C[N+](C)(C)CC(CC(=O)O)OC(=O)CC1CCCCC1 (centres unmarked) [cyclohexyl ACAR, cyclohexyl acetyl carnitine chloride]
LD50 (in vivo): 850 mg/kg | change in vivo at 35 mg/kg [1, 4]: 63% | change in vivo at 35 mg/kg [1, 5]: 44% | % Lipoproteins β ([2]; 400 mg kg^-1 oral): 12.15 ± 1.09% | % Lipoproteins α ([2]; 400 mg kg^-1 oral): 36.48 ± 2.36% | % Lipoproteins pre-β ([2]; 400 mg kg^-1 oral): 49.12% | Chol. (plasma cholesterol) ([2]; 400 mg kg^-1 oral): 85.15 ± 4.26 mg/100 ml | TG (plasma triglycerides) ([2]; 400 mg kg^-1 oral): 100.12 ± 15.16 mg/100 ml

CC(C=O)C(=O)OC(CC(=O)[O-])C[N+](C)(C)C (centres unmarked) [formyl propionyl CAR]
LD50 and fiducial limits (mice): 1010 (850-1170) mg kg^-1 | contractile force, mean ± ESM [3]: 74.26 ± 4.15% | % increase of the latency time to onset of initial cardiac arrythmia ([1]; 60 mg kg^-1 i.v.): 55% | % increase of the latency time to onset of tachycardia ([1]; 60 mg kg^-1 i.v.): 34%

CCOCC(=O)OC(CC(=O)O)C[N+](C)(C)C (centres unmarked) [ethoxy ACAR, ethoxy acetyl carnitine chloride]
LD50 (in vivo): 2120 mg/kg | change in vivo at 20 mg/kg [1, 4]: 60% | change in vivo at 20 mg/kg [1, 5]: 55% | % Lipoproteins β ([2]; 250 mg kg^-1 oral): 10.28 ± 1.52% | % Lipoproteins α ([2]; 250 mg kg^-1 oral): 37.15 ± 2.17% | % Lipoproteins pre-β ([2]; 250 mg kg^-1 oral): 42.15 ± 2.27% | Chol. (plasma cholesterol) ([2]; 250 mg kg^-1 oral): 70.26 ± 6.48 mg/100 ml | TG (plasma triglycerides) ([2]; 250 mg kg^-1 oral): 78.25 ± 10.12 mg/100 ml

CC(C)C(O)C(=O)OC(CC(=O)O)C[N+](C)(C)C (centres unmarked) [2-hydroxy isovaleryl CAR]
LD50 (in vivo): 1580 mg/kg | change in vivo at 40 mg/kg [1, 4]: 60% | change in vivo at 40 mg/kg [1, 5]: 30%

COCC(=O)OC(CC(=O)O)C[N+](C)(C)C (centres unmarked) [methoxy ACAR, methoxy acetyl carnitine chloride]
LD50 (in vivo): 1980 mg/kg | change in vivo at 25 mg/kg [1, 4]: 65% | change in vivo at 25 mg/kg [1, 5]: 50%

C=C[C@H]1C[N@@]2CC[C@H]1C[C@@H]2[C@@H](O)c1ccnc2ccc(OC)cc12 [Quinidine, reference compound]
change in vivo at 8.9 mg/kg [1, 4]: 50% | change in vivo at 8.9 mg/kg [1, 5]: 41.7%

C[N+](C)(C)CC(CC(=O)O)OC(=O)CC1C=CCC1 (centres unmarked) [2-cyclopenten ACAR]
LD50 (in vivo): 1200 mg/kg | change in vivo at 100 mg/kg [1, 4]: 40% | change in vivo at 100 mg/kg [1, 5]: 20%

CCOCC(=O)O[C@H](CC(=O)O)C[N+](C)(C)C.[Cl-] [ethoxyacetyl CAR]
LD50 and fiducial limits (mice): 760 (545-975) mg kg^-1 | contractile force, mean ± ESM [3]: 62.25 ± 3.24% | % increase of the latency time to onset of initial cardiac arrythmia ([1]; 100 mg kg^-1 i.v.): 40% | % increase of the latency time to onset of tachycardia ([1]; 100 mg kg^-1 i.v.): 20%

CC(C)(C)CC(=O)OC(CC(=O)O)C[N+](C)(C)C (centres unmarked) [tert-butyl ACAR]
LD50 (in vivo): 1120 mg/kg | change in vivo at 25 mg/kg [1, 4]: 59% | change in vivo at 25 mg/kg [1, 5]: 36% | % Lipoproteins β ([2]; 350 mg kg^-1 oral): 13.27 ± 1.12% | % Lipoproteins α ([2]; 350 mg kg^-1 oral): 31.12 ± 2.17% | % Lipoproteins pre-β ([2]; 350 mg kg^-1 oral): 51.36% | Chol. (plasma cholesterol) ([2]; 350 mg kg^-1 oral): 70.12 ± 3.24 mg/100 ml | TG (plasma triglycerides) ([2]; 350 mg kg^-1 oral): 99.36 ± 10.12 mg/100 ml

COC(=O)CCC(=O)OC(CC(=O)O)C[N+](C)(C)C (centres unmarked) [3-carbomethoxypropionyl CAR, 3-carbomethoxypropionyl carnitine chloride]
LD50 (in vivo): 985 mg/kg | change in vivo at 25 mg/kg [1, 4]: 65% | change in vivo at 25 mg/kg [1, 5]: 39% | % Lipoproteins β ([2]; 350 mg kg^-1 oral): 11.18 ± 1.15% | % Lipoproteins α ([2]; 350 mg kg^-1 oral): 34.17 ± 3.23% | % Lipoproteins pre-β ([2]; 350 mg kg^-1 oral): 50.03% | Chol. (plasma cholesterol) ([2]; 350 mg kg^-1 oral): 69.25 ± 3.26 mg/100 ml | TG (plasma triglycerides) ([2]; 350 mg kg^-1 oral): 88.15 ± 15.36 mg/100 ml
